target: T1, recombinant human TRPV1 (Homo sapiens, UniProt Q8NER1); experiment: FLIPR based Ca2+ influx assay, capsaicin-induced, TRPV1.CHO cells; format: cell-based; details: CHO-K1 cells stably expressing recombinant human TRPV1; 30 nM capsaicin (~EC80); 15 mins pre-incubation
T1 construct: expressed in transfected cells
Method: The functional activity of compounds at the TRPV1 receptor was determined using a Molecular Devices FLIPR based Ca^2+ influx assay, employing a Ca^2+ sensitive fluorescent dye and a CHO-K1 cell line, stably expressing recombinant human TRPV1, under the control of a CMV promoter (TRPV1.CHO cells). TRPV1.CHO cells were routinely maintained at 37° C./5% CO2 in normal growth medium (Dulbecco's Modified Eagles medium (DMEM/NUT.MDC.F-12 GLUTAMAX-1 (1:1) with PYRIDOXINE) supplemented with 10% fetalclone II serum and 0.4 mg/ml G418, (all Invitrogen).
Test compounds were prepared as 10 mM stock solution in DMSO and tested for activity over several log units (ranging […]-100 pM). Serial dilutions (half-log dose response) were prepared in 100% DMSO with further dilutions in aqueous assay buffer to final assay concentration for IC50 determination (1% DMSO final).
TRPV1.CHO cells were seeded (10,000 cells/well) in a 384 clear bottom plate (Costar) 24 hr prior to assay. […]
TRPV1 responses were assessed following addition, in the FLIPR, of 12.5 μl/well of test compound (to give appropriate final concentration) for 15 mins time followed by 12.5 μl/well of 120 nM capsaicin (agonist) in TRPV1 buffer to give a final concentration of capsaicin of 30 nM (˜EC80 concentration). Ca^2+ influx was assessed by measurement of fluorescence. Baseline fluorescence responses were measured for approximately 10 s prior to addition of capsaicin. Increases in fluorescence emission following capsaicin addition were measured for a further 110 s. Responses were recorded as Max-Min fluorescence. Antagonist induced inhibition of TRPV1 mediated increases in intracellular [Ca^2+] was assessed relative to wells on the same plate to which capsaicin was added in the absence of antagonist (i.e pre-incubation in buffer alone).

T1 sequence (Q8NER1 whole entry): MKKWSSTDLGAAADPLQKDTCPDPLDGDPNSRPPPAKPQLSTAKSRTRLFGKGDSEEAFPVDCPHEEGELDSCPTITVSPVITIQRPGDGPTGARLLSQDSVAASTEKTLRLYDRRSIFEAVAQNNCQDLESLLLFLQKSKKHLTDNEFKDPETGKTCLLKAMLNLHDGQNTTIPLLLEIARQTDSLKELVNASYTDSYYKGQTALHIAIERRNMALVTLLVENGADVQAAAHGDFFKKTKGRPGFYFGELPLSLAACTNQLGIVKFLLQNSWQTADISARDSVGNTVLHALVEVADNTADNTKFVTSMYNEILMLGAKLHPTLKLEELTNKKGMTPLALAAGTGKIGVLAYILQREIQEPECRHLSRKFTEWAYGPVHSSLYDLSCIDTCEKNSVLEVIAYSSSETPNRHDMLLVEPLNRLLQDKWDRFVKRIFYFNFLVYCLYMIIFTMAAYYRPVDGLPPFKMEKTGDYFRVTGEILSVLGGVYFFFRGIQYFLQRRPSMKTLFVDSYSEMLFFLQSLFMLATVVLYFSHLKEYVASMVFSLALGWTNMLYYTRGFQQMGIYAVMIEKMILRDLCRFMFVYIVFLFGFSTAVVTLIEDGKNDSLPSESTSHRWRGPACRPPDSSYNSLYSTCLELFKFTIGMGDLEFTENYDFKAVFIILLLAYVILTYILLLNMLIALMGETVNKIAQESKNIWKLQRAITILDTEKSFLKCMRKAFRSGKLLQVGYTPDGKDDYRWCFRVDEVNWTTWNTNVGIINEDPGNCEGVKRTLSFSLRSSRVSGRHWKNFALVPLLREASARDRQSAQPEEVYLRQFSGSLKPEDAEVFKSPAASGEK

IC50 [nM] | SMILES
0.5 | C[Si](C)(C)c1ccc(NC(=O)N2CCN(c3ncccc3Cl)CC2)cc1 [A-01, 4(3-chloropyridin-2-yl)-N-(4-(trimethylsilyl)phenyl)piperazine-1-carboxamide]
2.3 | C[Si](C)(C)c1ccc(NC(=O)C2=CCN(c3ncccc3Cl)CC2)cc1 [A-05, 1-(3-chloropyridin-2-yl)-N-(4-(trimethylsilyl)phenyl)-1,2,3,6-tetrahydropyridine-4-carboxamide]
5.4 | C[Si](C)(C)c1ccc(NC(=O)c2ccc(-c3ncccc3C(F)(F)F)cc2)cc1 [A-04, 4-(3-(trifluoromethyl)pyridin-2-yl)-N-(4-(trimethylsilyl)phenyl)benzamide]

From US8748610B2, “Compounds as TRPV1 antagonists, pharmaceutical compositions and medical uses thereof” (FL Therapeutics LLC, priority 2009, dated 2014)
